84 compounds from PubChem BioAssay AID493250 (Broad Institute, 2011) can be followed below.

The source made the active and inactive calls.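 How the source made its calls: active means signal decrease with fitted half-maximal dose at or below ten times the highest valid tested dose; inconclusive means poor fit, or flat fit at 30 to 70% inhibition; inactive means the rest.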

The target in one experiment is Zinc finger protein mex-5 (Caenorhabditis elegans) (UniProt Q9XUB2). Kind of experiment: inhibitors of MEX-5 RNA binding, dose response, biochemical, fluorescence polarization, C. elegans, cherry-picked, round 3 (AID 493250). The following applies: purified MEX-5-MBP, FITC-TCR2 RNA fluorescence polarization. (Fluorescence polarisation rises when a labelled molecule tumbles more slowly, as on binding a larger partner.)
Chain of Zinc finger protein mex-5 (Caenorhabditis elegans) (Q9XUB2 whole entry, looked up): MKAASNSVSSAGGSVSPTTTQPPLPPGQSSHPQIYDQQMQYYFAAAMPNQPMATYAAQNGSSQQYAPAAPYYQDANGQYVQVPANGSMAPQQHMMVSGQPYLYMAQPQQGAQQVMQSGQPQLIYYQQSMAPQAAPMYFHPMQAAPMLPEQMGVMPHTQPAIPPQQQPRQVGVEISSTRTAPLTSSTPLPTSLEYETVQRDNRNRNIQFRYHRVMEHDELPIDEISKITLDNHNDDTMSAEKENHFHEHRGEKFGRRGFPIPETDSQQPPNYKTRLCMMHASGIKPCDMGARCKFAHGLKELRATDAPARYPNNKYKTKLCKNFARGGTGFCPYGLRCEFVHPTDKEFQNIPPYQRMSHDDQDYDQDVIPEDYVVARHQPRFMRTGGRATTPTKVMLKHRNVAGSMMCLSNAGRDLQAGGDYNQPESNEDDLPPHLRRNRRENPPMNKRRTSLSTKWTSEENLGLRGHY
For `CCS(=O)(=O)C1=NN2C(=N)/C(=C\c3ccc(SCc4ccco4)o3)C(=O)N=C2S1`, the AC50 (usually the midpoint of the concentration-response curve, whichever way the signal moves) was 10.4 µM.
Still for that read-out and setting: then `CCN1/C(=C/C=C/c2oc3ccc(-c4ccccc4)cc3[n+]2CC)Oc2ccc(-c3ccccc3)cc21`, with 0.338 µM; and `OCCCc1nc2n(n1)C(c1ccccc1Cl)C=C(c1cccs1)N2` (centres undefined), with 10.1 µM.
Turning to `CCCC1=NN2C(=N)/C(=C\c3ccc(SCc4ccco4)o3)C(=O)N=C2S1`, the AC50 is 0.98 µM.
Still for that read-out and setting: under `CCCC1C2CN(C(C)C)CC=C2C(C#N)=C(N)C1(C#N)C#N` (centres undefined) stands 4.99 µM; under `COC(=O)c1ccc2c(c1)SC1=C(CCCC1=O)N2`, 5.95 µM.
Still for that read-out and setting: then `O=C1C(Br)=Cc2cccc3cccc1c23`, with 3.06 µM.

The experiment is the same for the next values; noted with them: purified MEX-5-MBP, FITC-TCR2 RNA fluorescence polarization; at 10 µM (top of the series).
Take `c1cncc(C2CC(c3cccs3)n3ncnc3N2)c1` (centres undefined): the “activity change, negative = inhibition” value was “inactive”.
On to `C[C@H](O)CC1=C[C@H](O)[C@@H](C)OC1=O`, for which the “activity change, negative = inhibition” value was “inactive”.
Same read-out and setting: under `COc1ccc(OC)c(-n2c(-c3cc(-c4ccco4)[nH]n3)n[nH]c2=S)c1` stands “inactive”; under `C#CCOCCOCCOCCNc1nc(N2CCN(C(=O)[C@H]([C@@H](C)O)n3cc(CCCCN)nn3)CC2)nc(N2CCN(C(=O)[C@H](C)n3cc(CCCN=C(N)N)nn3)CC2)n1`, “inactive”; under `O=C(O)c1ccc(NCc2cccnc2)cc1`, “inactive”.
As for `Cc1ccc(C(=O)N/C(=C\c2ccc(-c3cccc([N+](=O)[O-])c3)o2)C(=O)NCCCN(C)C)cc1`, the “activity change, negative = inhibition” value is “inactive”.
Same read-out and setting: under `CSc1ccc(/C=C/C(=O)c2ccc(NC(C)=O)cc2)cc1` stands “inactive”; under `CCc1ccc(/C=C2\Oc3cc(OS(C)(=O)=O)ccc3C2=O)cc1`, “inactive”; under `CC(=O)Nc1ccc(-c2csc(Nc3cccc(C)n3)n2)cc1`, “inactive”.
On the same count and under the same terms, under `Cc1ccc2c(c1Cl)NC(C(=O)O)C1CC(Sc3ccccc3[N+](=O)[O-])C(Cl)C21` (centres undefined) stands “inactive”.
The same measure, in the same setting: under `Cc1ccc(N2C(=O)c3ccc(C(=O)O)cc3C2=O)cc1C` stands “inactive”; under `Cc1c(C#N)c(O)[nH]c(=O)c1N=Nc1ccc(S(N)(=O)=O)cc1`, “inactive”; under `COc1ccc(C(=O)NNC(=O)c2ccc3ccccc3c2O)cc1`, “inactive”.
Consider `Cc1ccc(-c2nc(C=Nc3cccc(C)c3)c(O)o2)cc1`, for which the “activity change, negative = inhibition” value was “inactive”.
On the same count and under the same terms, under `CC(=O)N1C(=O)/C(=C2\SC(=S)N(NC(=O)c3ccc(O)cc3)C2=O)c2ccccc21` stands “inactive”; under `O=C1N=c2ccccc2=C1c1[nH]c(=S)[nH]c1O`, “inactive”.
Turning to `NC(=S)N=Nc1c(O)[nH]c2cc(F)c(F)cc12`, the “activity change, negative = inhibition” value is “inactive”.
On the same count and under the same terms, then `Cc1ccc(NC(=O)CCC(=O)NNC(=S)Nc2ccccc2)c(C)c1`, with “inactive”; and `COC(=O)c1ccc(CC(=O)c2c(C)cc(O)cc2O)o1`, with “inactive”.
The same measure, in the same setting: then `CCOc1ccc2nc(N=Nc3c(O)[nH]c(=O)[nH]c3=O)sc2c1`, with “inactive”.
`Nc1c(C(=O)Nc2ccccc2)sc2nc3c(c(-c4ccco4)c12)CCC3`: the “activity change, negative = inhibition” value is “inactive”.
On the same count and under the same terms, under `COc1ccc(-n2c(C)nc3cc(C(=O)O)ccc32)cc1` stands “inactive”; under `O=C1c2cccc3cccc(c23)C(=O)N1Cc1ccccc1`, “inactive”.
On to `CN1CCc2nc3sc(C(=O)NC(C)(C)C)c(N)c3cc2C1`, for which the “activity change, negative = inhibition” value is “inactive”.
Still for that read-out and setting: then `COc1ccc(N(CCC#N)C(=O)/C(C#N)=C/c2cccs2)cc1`, with “inactive”; and `CN1C(=O)NC(c2ccccc2Cl)C2=C1CC(C)(C)CC2=O` (centres undefined), with “inactive”; and `CCc1nc2ccccc2c(=O)n1/N=C/c1ccc(OC)cc1`, with “inactive”.
On the same count and under the same terms, under `C=CCn1c(O)c(N=NC(=S)Nc2cccc(C)c2)c2ccccc21` stands “inactive”; under `Nc1nonc1C(=O)N/N=C/c1cc(Br)ccc1O`, “inactive”.
On the same count and under the same terms, then `COC1=C(Nc2ccc(O)cc2)C(=O)c2ccccc2C1=O`, with “inactive”; and `CCCn1c(=N)c(C(=O)NC2CCCC2)cc2c(=O)n3cccc(C)c3nc21`, with “inactive”; and `CC(=O)c1cc(NC(=O)c2ccc([N+](=O)[O-])cc2)c(=O)oc1C`, with “inactive”.
In the case of `CC1(N2CCOCC2)CC2(O)C(=[N+]1[O-])CCc1c2no[n+]1[O-]` (centres undefined), the “activity change, negative = inhibition” value was “inactive”.
Same read-out and setting: under `O=C1SC(SCc2ccccc2)=N/C1=C\c1ccc(C(=O)O)cc1` stands “inactive”; under `COc1ccc(/C=N/Nc2nc(=O)[nH]nc2C)cc1[N+](=O)[O-]`, “inactive”.
The same measure, in the same setting: under `NC(=O)C(=O)N/N=C/c1c2ccccc2cc2ccccc12` stands “inactive”; under `Cc1cccn2c(=O)c3cc(C(=O)NC(C)C)c(=N)n(Cc4ccncc4)c3nc12`, “inactive”; under `COc1cc(/C=C/c2nc(-c3ccccc3O)n[nH]2)cc(OC)c1OC`, “inactive”.
Still for that read-out and setting: under `O=C(O)c1cccc(NC(=S)N/N=C/c2c[nH]c3ccccc23)c1` stands “inactive”; under `O=C(O)c1ccc2cccnc2c1O`, “inactive”.
As for `CN1CCc2c(sc(NC(=O)c3ccc(S(=O)(=O)N4CCCC4)cc3)c2C(N)=O)C1`, the “activity change, negative = inhibition” value was “inactive”.
The same measure, in the same setting: under `CCn1c(C)nc2c1C(=O)c1ccccc1C2=O` stands “inactive”.
On to `Cc1nc2c3ccccc3nc(NNC(=O)CCC(=O)N3CCC(C)CC3)n2n1`, for which the “activity change, negative = inhibition” value is “inactive”.
The same measure, in the same setting: then `Cc1ccc(S(=O)(=O)c2cc3c(=O)n4cccc(C)c4nc3n(C3CCCCC3)c2=N)cc1`, with “inactive”; and `Cc1cccc(/C=N/NC(=O)Cn2nnnc2N)n1`, with “inactive”; and `CC(C)(C)N(CC#CCC(O)(c1ccccc1)c1ccccc1)CCO`, with “inactive”.
Still for that read-out and setting: then `COc1ccccc1N=Nc1c(C)[nH][nH]c1=O`, with “inactive”.
Same read-out and setting: under `COc1c(OC2OC(C(=O)O)C(O)C(O)C2O)cc(O)c2c(=O)cc(-c3ccccc3)oc12` (centres undefined) stands “inactive”; under `Cn1c(CNC(=O)c2ccc(F)cc2)cc2ccccc21`, “inactive”; under `Cc1ccc(Nc2nc(-c3ccc(O)cc3O)cs2)nc1`, “inactive”.
For the compound `O=C(NNC(=O)c1ccc([N+](=O)[O-])o1)c1ccccc1`, the “activity change, negative = inhibition” value was “inactive”.
Consider `CN(C)C(=O)Oc1ccc2c(c1)O/C(=C\c1ccccc1)C2=O`, for which the “activity change, negative = inhibition” value is “inactive”.
The same measure, in the same setting: then `O=C(N/N=C/c1cccnc1)c1ccc(O)cc1`, with “inactive”.
`FC(F)(F)c1ccc(Cl)c(-n2c(-c3cc(-c4ccco4)[nH]n3)n[nH]c2=S)c1`: the “activity change, negative = inhibition” value was “inactive”.
Same read-out and setting: under `COc1cc(/C=N/NC(=O)CNS(=O)(=O)c2ccc(C)cc2)cc(OC)c1OC` stands “inactive”; under `Cc1cccc(C)c1NC(=O)/C(C#N)=C/c1cccs1`, “inactive”; under `O=C(O)c1ccc2cccnc2n1`, “inactive”.
Consider `CCCNc1nc2ccccc2n2c(C)nnc12`, for which the “activity change, negative = inhibition” value is “inactive”.
Still for that read-out and setting: then `Oc1ccc(/C=N/N2CCOCC2)c(O)c1O`, with “inactive”.
The same measure, in the same setting: under `N[C@@H](Cc1ccccc1)C(=O)N1CCC(C(=O)NCC(=O)Nc2ccc(F)cc2)CC1` stands “inactive”; under `CC1=NN(C(N)=S)C(=O)C1N=Nc1cccc(Cl)c1C` (centres undefined), “inactive”; under `O=C(NC1CCSc2ccccc21)c1cccc(Br)c1` (centres undefined), “inactive”.
As to `COc1cccc(/C=N/NC(=O)N/N=C/c2cccc(OC)c2O)c1O`, the “activity change, negative = inhibition” value is “inactive”.
Still for that read-out and setting: then `CCOc1cc(/C=N/n2c(C)nc3ccccc3c2=O)ccc1O`, with “inactive”; and `O=[N+]([O-])c1ccc(-c2cn3nc(-c4ccccc4)c(-c4ccccc4)nc3n2)cc1`, with “inactive”; and `O=C(Nc1nccs1)c1ccc(-c2ccc(Cl)cc2)o1`, with “inactive”.
For the compound `Nc1c(C(=O)Nc2cccc(Cl)c2Cl)sc2nc(-c3cccnc3)ccc12`, the “activity change, negative = inhibition” value was “inactive”.
On the same count and under the same terms, then `O=C(O)CSc1ncnc2nc[nH]c12`, with “inactive”.
Still for that read-out and setting: then `O=C(NNc1ccccc1)C(=O)NNS(=O)(=O)c1ccc(CCCl)cc1`, with “inactive”; and `Nc1c(NCc2ccccc2)c(=O)[nH]c(=O)n1Cc1ccccc1`, with “inactive”.
Same read-out and setting: then `COc1ccc(CC(=O)NNc2ncnc3c2cnn3C)cc1`, with “inactive”; and `CC(C)CNC(=O)c1ccccc1Oc1ccccc1`, with “inactive”; and `CC(=O)NNc1ncnc2ccccc12`, with “inactive”.
Consider `COc1ccc(CCn2c(=N)c(C(=O)NCC3CCCO3)cc3c(=O)n4cccc(C)c4nc32)cc1` (centres undefined), for which the “activity change, negative = inhibition” value was “inactive”.
In the case of `COc1ccc(OC)c(/C=N/NC(=O)c2ccc(=O)[nH]n2)c1`, the “activity change, negative = inhibition” value was “inactive”.
Same read-out and setting: then `Cc1csc(NC(=O)c2ccc(-c3ccc(Cl)cc3Cl)o2)n1`, with “inactive”.
In the case of `Oc1ccc(C2C=C(c3ccc(F)cc3)Nc3ncnn32)cc1` (centres undefined), the “activity change, negative = inhibition” value was “inactive”.
